Among the data in ChEMBL document CHEMBL6134807, “A review-plant medicine and its extraction components inhibit influenza virus” (Bioorg Med Chem Lett, 2025) are EC50 values, retold here.

Each structure is given as a SMILES string.

This assay concerns Influenza B virus. Briefly: Antiviral activity against Influenza virus […] B/Panama/45/1990 infected in MDCK cells at 0.001 MOI assessed as inhibition of virus cytopathic effect measured after 48 hrs by crystal violet staining based assay. The assay is classed as functional, organism-based. The following applies: B/Panama/45/1990, MDCK.
As for `O=C(O[C@@H]1Cc2c(O)cc(O)cc2O[C@@H]1c1ccc(O)c(O)c1)c1cc(O)c(O)c(O)c1` [EPICATECHIN GALLATE], the EC50 (commonly the concentration at which the effect is half-maximal) is 22 µM. With `COc1cc(/C=C/C(=O)CC(=O)/C=C/c2ccc(O)c(OC)c2)ccc1O` [CURCUMIN] the figure was 0.47 µM; with `O=C(O[C@@H]1Cc2c(O)cc(O)cc2O[C@@H]1c1cc(O)c(O)c(O)c1)c1cc(O)c(O)c(O)c1` [EPIGALOCATECHIN GALLATE], 5.7 µM.
